Source: patent US8445501B2, “Substituted 7-carboxamido-pyrrolo[3,2-d]pyrimidines” (Takeda GmbH, priority 2008, dated 2013)

molecular target: T1, human PDE5 (Homo sapiens, UniProt O76074); assay: Inhibition of the type 5 phosphodiesterase (PDE5) activity, modified SPA test with platelet lysate; type: biochemical; settings: PDE5 from human platelet lysate, 0.5 μM cGMP
T1 construct: from tissue; host or cells: platelets from fresh blood of human donors (lysate, 10,000 g supernatant)
Procedure: Method for Measuring Inhibition of the Type 5 Phosphodiesterase (PDE5) Activity:
As a source for human PDE5, platelets are used. For that purpose, 150 ml fresh blood from human donors anticoagulated with citrate [final concentration 0.3% (w/v)] is centrifuged at 200 g for 10 min to obtain the so-called platelet-rich-plasma (PRP) as a supernatant. 1/10 volume of ACD solution (85 mM Na3-citrate, 111 mM D-glucose, 71 mM citric acid, pH 4.4) is added to 9/10 volume of PRP. After centrifugation (1,400 g, 10 min) the cell pellet is resuspended in 3 ml homogenization buffer (NaCl 140 mM, KCl 3.8 mM, EGTA (ethylene glycol tetraacetic acid) 1 mM, MgCl2 1 mM, Tris-HCl 20 mM, beta-mercaptoethanol 1 mM, pH 8.2) plus protease-inhibitor mix giving rise to the final concentrations of 0.5 mM Pefablock (Roche), 10 μM Leupeptin, 5 μM Trypsininhibitor, 2 mM Benzamidin and 10 μM Pepstatin A. The suspension is sonified and thereafter centrifuged for 15 min at 10,000 g. The resulting supernatant (platelet lysate) is used for enzymatic testings.
PDE5A1 activity is inhibited by the compounds of the invention in a modified SPA (scintillation proximity assay) test, supplied by Amersham Biosciences (see procedural instructions “phosphodiesterase [3H]cAMP SPA enzyme assay, code TRKQ 7090”), carried out in 96-well microtitre plates (MTP's). The test volume is 100 μl and contains 20 mM Tris buffer (pH 7.4), 0.1 mg of BSA (bovine serum albumin)/ml, 5 mM Mg^2+, 1 μM motapizone, 10 nM PDE2 inhibitor 2-(3,4-dimethoxybenzyl)-7-[(1R,2R)-2-hydroxy-1-(2-phenylethyl)propyl]-5-methylimidazo[5,1-f][1,2,4]triazin-4(3H)-one, 0.5 μM cGMP (cyclic guanosine monophosphate) (including about 50,000 cpm of [3H]cGMP as a tracer), 1 μl of the respective compound dilution in dimethylsulfoxide (DMSO) and sufficient PDE5-containing platelet lysat (10,000×g supernatant, see above) to ensure that 10-20 wt % of the cGMP is converted under the said experimental conditions. […] After a preincubation of 5 min at 37° C., the reaction is started by adding the substrate (cGMP) and the assay is incubated for a further 15 min; after that, it is stopped by adding SPA beads (50 μl). In accordance with the manufacturer's instructions, the SPA beads had previously been resuspended in water, but are then diluted 1:3 (v/v) in water; the diluted solution also contains 3 mM […] (IBMX) to ensure a complete PDE activity stop. After the beads have been sedimented (>30 min), the MTP's are analyzed in commercially available luminescence detection de-vices. The corresponding IC50 values of the compounds for the inhibition of PDE activity are deter-mined from the concentration-effect curves by means of non-linear regression.

Row | SMILES | IC50 [nM]
1 | CCOC(=O)N1CC[C@H](NC(=O)c2c[nH]c3c(-c4c(OCC5CC5)ccc5c4OCO5)ncnc23)C1 [Example 22, (S)-3-({1-[4-(5-Cyclopropylmethoxy-benzo[1,3]dioxol-4-yl)-5H-pyrrolo[3,2-d]pyrimidin-7-yl]-methanoyl}-amino)-pyrrolidine-1-carboxylic acid ethyl ester] | 0.49
2 | O=CN1CCC(CNC(=O)c2c[nH]c3c(-c4c(OCC5CC5)ccc5c4OCO5)ncnc23)CC1 [Example 23, 4-(5-Cyclopropylmethoxy-benzo[1,3]dioxol-4-yl)-5H-pyrrolo[3,2-d]pyrimidine-7-carboxylic acid (1-formyl-piperidin-4-ylmethyl)-amide] | 0.447
3 | CC(=O)N1CCC(CNC(=O)c2c[nH]c3c(-c4c(OCC5CC5)ccc5c4OCO5)ncnc23)CC1 [Example 24, 4-(5-Cyclopropylmethoxy-benzo[1,3]dioxol-4-yl)-5H-pyrrolo[3,2-d]pyrimidine-7-carboxylic acid (1-acetyl-piperidin-4-ylmethyl)-amide] | 0.302
4 | O=C(NCC1CCN(C(=O)C2CC2)CC1)c1c[nH]c2c(-c3c(OCC4CC4)ccc4c3OCO4)ncnc12 [Example 25, 4-(5-Cyclopropylmethoxy-benzo[1,3]dioxol-4-yl)-5H-pyrrolo[3,2-d]pyrimidine-7-carboxylic acid [1-(1-cyclopropyl-methanoyl)-piperidin-4-ylmethyl]-amide] | 0.24
5 | COCC(=O)N1CCC(CNC(=O)c2c[nH]c3c(-c4c(OCC5CC5)ccc5c4OCO5)ncnc23)CC1 [Example 26, 4-(5-Cyclopropylmethoxy-benzo[1,3]dioxol-4-yl)-5H-pyrrolo[3,2-d]pyrimidine-7-carboxylic acid [1-(2-methoxy-ethanoyl)-piperidin-4-ylmethyl]-amide] | 0.457
6 | CCOC(=O)N1CCC(CNC(=O)c2c[nH]c3c(-c4c(OCC5CC5)ccc5c4OCO5)ncnc23)CC1 [Example 27, 4-[({1-[4-(5-Cyclopropylmethoxy-benzo[1,3]dioxol-4-yl)-5H-pyrrolo[3,2-d]pyrimidin-7-yl]-methanoyl}-amino)-methyl]-piperidine-1-carboxylic acid ethyl ester] | 0.372
7 | O=CN1CCCC(CNC(=O)c2c[nH]c3c(-c4c(OCC5CC5)ccc5c4OCO5)ncnc23)C1 (centres unmarked) [Example 28, 4-(5-Cyclopropylmethoxy-benzo[1,3]dioxol-4-yl)-5H-pyrrolo[3,2-d]pyrimidine-7-carboxylic acid (1-formyl-piperidin-3-ylmethyl)-amide] | 0.692
8 | CCC(=O)N1CCCC(CNC(=O)c2c[nH]c3c(-c4c(OCC5CC5)ccc5c4OCO5)ncnc23)C1 (centres unmarked) [Example 29, 4-(5-Cyclopropylmethoxy-benzo[1,3]dioxol-4-yl)-5H-pyrrolo[3,2-d]pyrimidine-7-carboxylic acid (1-propionyl-piperidin-3-ylmethyl)-amide] | 0.275
9 | COCC(=O)N1CCCC(CNC(=O)c2c[nH]c3c(-c4c(OCC5CC5)ccc5c4OCO5)ncnc23)C1 (centres unmarked) [Example 30, 4-(5-Cyclopropylmethoxy-benzo[1,3]dioxol-4-yl)-5H-pyrrolo[3,2-d]pyrimidine-7-carboxylic acid [1-(2-methoxy-acetyl)piperidin-3-ylmethyl]-amide] | 0.479
10 | CCOC(=O)N1CCCC(CNC(=O)c2c[nH]c3c(-c4c(OCC5CC5)ccc5c4OCO5)ncnc23)C1 (centres unmarked) [Example 31, 3-({[4-(5-Cyclopropylmethoxy-benzo[1,3]dioxol-4-yl)-5H-pyrrolo[3,2-d]pyrimidine-7-carbonyl]-amino}-methyl)-piperidine-1-carboxylic acid ethyl ester] | 0.224
11 | O=CN1CCC(CNC(=O)c2c[nH]c3c(-c4c(OCC5CC5)ccc5c4OCO5)ncnc23)C1 (centres unmarked) [Example 32, 4-(5-Cyclopropylmethoxy-benzo[1,3]dioxol-4-yl)-5H-pyrrolo[3,2-d]pyrimidine-7-carboxylic acid (1-formyl-pyrrolidin-3-ylmethyl)-amide] | 1.1
12 | COCC(=O)N1CCC(CNC(=O)c2c[nH]c3c(-c4c(OCC5CC5)ccc5c4OCO5)ncnc23)C1 (centres unmarked) [Example 33, 4-(5-Cyclopropylmethoxy-benzo[1,3]dioxol-4-yl)-5H-pyrrolo[3,2-d]pyrimidine-7-carboxylic acid [1-(2-methoxy-acetyl)-pyrrolidin-3-ylmethyl]-amide] | 1.51
13 | CCOC(=O)N1CCC(CNC(=O)c2c[nH]c3c(-c4c(OCC5CC5)ccc5c4OCO5)ncnc23)C1 (centres unmarked) [Example 34, 3-({[4-(5-Cyclopropylmethoxy-benzo[1,3]dioxol-4-yl)-5H-pyrrolo[3,2-d]pyrimidine-7-carbonyl]-amino}-methyl)-pyrrolidine-1-carboxylic acid ethyl ester] | 0.347

Continued, values first:

Row | IC50 [nM] | SMILES
14 | 0.708 | O=CN1CCOC(CNC(=O)c2c[nH]c3c(-c4c(OCC5CC5)ccc5c4OCO5)ncnc23)C1 (centres unmarked) [Example 35, 4-(5-Cyclopropylmethoxy-benzo[1,3]dioxol-4-yl)-5H-pyrrolo[3,2-d]pyrimidine-7-carboxylic acid (4-formyl-morpholin-2-ylmethyl)-amide]
15 | 0.49 | CCC(=O)N1CCOC(CNC(=O)c2c[nH]c3c(-c4c(OCC5CC5)ccc5c4OCO5)ncnc23)C1 (centres unmarked) [Example 36, 4-(5-Cyclopropylmethoxy-benzo[1,3]dioxol-4-yl)-5H-pyrrolo[3,2-d]pyrimidine-7-carboxylic acid (4-propionyl-morpholin-2-ylmethyl)-amide]
16 | 0.912 | COCC(=O)N1CCOC(CNC(=O)c2c[nH]c3c(-c4c(OCC5CC5)ccc5c4OCO5)ncnc23)C1 (centres unmarked) [Example 37, 4-(5-Cyclopropylmethoxy-benzo[1,3]dioxol-4-yl)-5H-pyrrolo[3,2-d]pyrimidine-7-carboxylic acid [4-(2-methoxy-acetyl)morpholin-2-ylmethyl]-amide]
17 | 0.398 | CCOC(=O)N1CCOC(CNC(=O)c2c[nH]c3c(-c4c(OCC5CC5)ccc5c4OCO5)ncnc23)C1 (centres unmarked) [Example 38, 2-({[4-(5-Cyclopropylmethoxy-benzo[1,3]dioxol-4-yl)-5H-pyrrolo[3,2-d]pyrimidine-7-carbonyl]-amino}-methyl)-morpholine-4-carboxylic acid ethyl ester]
18 | 0.776 | CC(=O)N1CC(NC(=O)c2c[nH]c3c(-c4c(OCC5CC5)ccc5c4OCO5)ncnc23)C1 [Example 39, 4-(5-Cyclopropylmethoxy-benzo[1,3]dioxol-4-yl)-5H-pyrrolo[3,2-d]pyrimidine-7-carboxylic acid (1-acetyl-azetidin-3-yl)-amide]
19 | 0.427 | CCC(=O)N1CC(NC(=O)c2c[nH]c3c(-c4c(OCC5CC5)ccc5c4OCO5)ncnc23)C1 [Example 40, 4-(5-Cyclopropylmethoxy-benzo[1,3]dioxol-4-yl)-5H-pyrrolo[3,2-d]pyrimidine-7-carboxylic acid (1-propionyl-azetidin-3-yl)-amide]
20 | 0.891 | COCC(=O)N1CC(NC(=O)c2c[nH]c3c(-c4c(OCC5CC5)ccc5c4OCO5)ncnc23)C1 [Example 41, 4-(5-Cyclopropylmethoxy-benzo[1,3]dioxol-4-yl)-5H-pyrrolo[3,2-d]pyrimidine-7-carboxylic acid [1-(2-methoxy-ethanoyl)-azetidin-3-yl]amide]
21 | 0.191 | CCOC(=O)N1CC(NC(=O)c2c[nH]c3c(-c4c(OCC5CC5)ccc5c4OCO5)ncnc23)C1 [Example 42, 3-({1-[4-(5-Cyclopropylmethoxy-benzo[1,3]dioxol-4-yl)-5H-pyrrolo[3,2-d]pyrimidin-7-yl]-methanoyl}-amino)-azetidine-1-carboxylic acid ethyl ester]
22 | 0.282 | O=CN1CCC(NC(=O)c2c[nH]c3c(-c4c(OCC5CC5)ccc5c4OCO5)ncnc23)CC1 [Example 43, 4-(5-Cyclopropylmethoxy-benzo[1,3]dioxol-4-yl)-5H-pyrrolo[3,2-d]pyrimidine-7-carboxylic acid (1-formyl-piperidin-4-yl)-amide]
23 | 0.794 | CCC(=O)N1CCC[C@H](NC(=O)c2c[nH]c3c(-c4c(OCC5CC5)ccc5c4OCO5)ncnc23)C1 [Example 44, 4-(5-Cyclopropylmethoxy-benzo[1,3]dioxol-4-yl)-5H-pyrrolo[3,2-d]pyrimidine-7-carboxylic acid ((S)-1-propionyl-piperidin-3-yl)-amide]
